Measurements from patent publication US7662781B2, “Immunopotentiating agent” (ECI, Inc., priority 2005, dated 2010).

Legend:
[1] = test system: Lewis lung carcinoma (3LL); experiment: Lung metastasis system of intravenously injected 3LL; assay type: in vivo, C57BL/6 mice; settings: 25 mg/mouse, twice a week
Experimental: By using a lung metastasis system of Lewis lung carcinoma (3LL), the tumor metastasis inhibition effect of eMIP was evaluated. Female C57BL/6 mice aged 7 weeks were employed. 10^6 3LL cells were injected into each animal via the tail vein. After 25 days, the lungs were taken out, weighed and fixed with Bouin' solution. Then, cancer tissues metastasized into the lungs were counted under a stereoscopic microscope. 30 minutes after the 3LL transplantation, eMIP was injected as the first administration followed by continuous administration once a week for 4 weeks. In the system wherein the administration was initiated 7 days after the 3LL transplantation, the effect of eMIP was examined. 5Fu employed as a control was administered twice a week.

[2] = test system: dendritic cell precursors; settings: Yoneyama 2001; Zhang 2004; cited from earlier work

Row | Molecule | inhibition rate of metastasis into the lungs [1] [%] | mobilization of dendritic cell precursors in the blood [2]
1 | O=c1[nH]cc(F)c(=O)[nH]1 [5Fu] | 78 | 
2 | MIP-1α: molecule of about 70 amino acids belonging to the C—C chemokine family, ligand for CCR1 and CCR5 (protein, UniProt P10147 24-92, looked up) C-C motif chemokine 3: SLAADTPTACCFSYTSRQIPQNFIADYFETSSQCSKPGVIFLTKRSRQVCADPSEEWVQKYVSDLELSA |  | several ten-fold
